Assay results: ChEMBL document CHEMBL1201862, “PubChem BioAssay data set” (2004)
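Where inhibition never reached the appropriate level, the endpoint shown equals the highest concentration tested. Otherwise, values were interpolated linearly from a five-concentration, 48-hour dose response in 96-well plates. Here, GI50 denotes the concentration required for 50% inhibition of growth.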 Calls of active or inactive are those of the source. No stated cut-off is given here; in the data, active = GI50 up to about 1.1 µM and inactive = higher.

What was measured:
Test in all cases: inhibition of tumour cell growth, NCI panel, 48 h
A549 = system: A549
CAKI-1 = system: CAKI-1
DU-145 = system: DU-145
HCT-116 = system: HCT-116
Hs-578T = system: Hs-578T
K562 = system: K562
LOX IMVI = system: LOX IMVI
MDA-MB-435 = system: MDA-MB-435
OVCAR-3 = system: OVCAR-3
OVCAR-4 = system: OVCAR-4
OVCAR-5 = system: OVCAR-5
PC-3 = system: PC-3
SF-295 = system: SF-295
SK-MEL-28 = system: SK-MEL-28
SK-OV-3 = system: SK-OV-3
SW-620 = system: SW-620
SF-539 = system: SF-539
TK-10 = system: TK-10

Measured: GI50

CC1C=C(NCC2(CO)CCC2)N=C(N)N1 (configuration not stated)
inactive: A549 > 100 µM | CAKI-1 > 100 µM | DU-145 > 100 µM | HCT-116 > 100 µM | Hs-578T > 100 µM | K562 > 100 µM | LOX IMVI > 100 µM | MDA-MB-435 > 100 µM | OVCAR-3 > 100 µM | OVCAR-4 > 100 µM | OVCAR-5 > 100 µM | PC-3 > 100 µM | SF-295 > 100 µM | SK-MEL-28 > 100 µM | SK-OV-3 > 100 µM | SW-620 > 100 µM

Cc1c(C)c2c(c(N)c1C#N)C(=O)N(CCN1CCNCC1)C2=O
inactive: A549 29.6 µM | CAKI-1 42 µM | DU-145 29.4 µM | HCT-116 16.1 µM | Hs-578T 28.8 µM | K562 51.6 µM | LOX IMVI 20.1 µM | MDA-MB-435 33.5 µM | OVCAR-3 33.3 µM | OVCAR-4 40.2 µM | OVCAR-5 31.1 µM | PC-3 18.4 µM | SF-295 31.5 µM | SF-539 32.8 µM | SK-MEL-28 38.3 µM | SW-620 31.6 µM | TK-10 36.7 µM

Clc1ccc(C(OCn2ccnc2)c2nc3ccccc3[nH]2)c(Cl)c1 (configuration not stated)
inactive: A549 43.4 µM | CAKI-1 87.3 µM | DU-145 64.4 µM | HCT-116 33.8 µM | Hs-578T 59.3 µM | K562 45.7 µM | LOX IMVI 32.4 µM | MDA-MB-435 25.2 µM | OVCAR-3 23.5 µM | OVCAR-4 16.6 µM | OVCAR-5 > 100 µM | PC-3 35.2 µM | SF-295 29.6 µM | SF-539 35.8 µM | SK-MEL-28 48.3 µM | SW-620 26.9 µM | TK-10 31.7 µM

Cc1n[nH]c(=O)n1/N=C/c1ccc([N+](=O)[O-])cc1
inactive: A549 > 100 µM | CAKI-1 30.1 µM | DU-145 > 100 µM | HCT-116 > 100 µM | Hs-578T 78 µM | K562 > 100 µM | LOX IMVI > 100 µM | MDA-MB-435 > 100 µM | OVCAR-3 > 100 µM | OVCAR-4 > 100 µM | OVCAR-5 > 100 µM | PC-3 > 100 µM | SF-295 > 100 µM | SF-539 > 100 µM | SK-MEL-28 > 100 µM | SW-620 > 100 µM | TK-10 > 100 µM

Cc1ccccc1Nc1cn(CCOc2ccccc2)c(=O)n(CCOc2ccccc2)c1=O
inactive: A549 > 100 µM | CAKI-1 > 100 µM | DU-145 > 100 µM | HCT-116 > 100 µM | Hs-578T > 100 µM | K562 > 100 µM | LOX IMVI > 100 µM | MDA-MB-435 > 100 µM | OVCAR-3 > 100 µM | OVCAR-4 58.7 µM | OVCAR-5 > 100 µM | PC-3 > 100 µM | SF-295 > 100 µM | SK-MEL-28 > 100 µM | SW-620 > 100 µM

O=C1c2ccccc2C(=O)c2c(NCC3CO3)cccc21 (configuration not stated)
inactive: A549 57 µM | CAKI-1 4.75 µM | HCT-116 7.01 µM | Hs-578T 38.4 µM | K562 6.62 µM | LOX IMVI 1.38 µM | MDA-MB-435 7.59 µM | OVCAR-3 15.4 µM | OVCAR-4 > 86.1 µM | OVCAR-5 > 71.3 µM | PC-3 16.9 µM | SF-295 26.5 µM | SF-539 > 45.3 µM | SK-MEL-28 > 41.7 µM | SK-OV-3 > 95.7 µM | SW-620 5.57 µM | TK-10 40.9 µM

CC(=O)OCC1OC(OCC2OC(N3C(=S)N[C@H]([C@@H](O)[C@H](O)[C@H](O)CO)[C@H]3O)C(OC(C)=O)C(OC(C)=O)C2OC(C)=O)C(OC(C)=O)C(OC(C)=O)C1OC(C)=O (some centres not stated)
inactive: A549 > 100 µM | CAKI-1 > 100 µM | DU-145 > 100 µM | HCT-116 > 100 µM | K562 28.6 µM | MDA-MB-435 > 100 µM | OVCAR-3 > 100 µM | OVCAR-4 > 100 µM | OVCAR-5 > 100 µM | PC-3 > 100 µM | SF-295 > 100 µM | SF-539 > 100 µM | SK-MEL-28 > 100 µM | SK-OV-3 > 100 µM | SW-620 > 100 µM | TK-10 > 100 µM

O=S(=O)(N/C(=N\O)Nc1ccc(Cl)cc1)c1ccc(S(=O)(=O)c2ccccc2)s1
inactive: A549 28.6 µM | CAKI-1 21.4 µM | DU-145 19.5 µM | HCT-116 16.7 µM | Hs-578T 28.6 µM | K562 16.6 µM | LOX IMVI 15.5 µM | MDA-MB-435 17 µM | OVCAR-3 18.4 µM | OVCAR-4 14.1 µM | OVCAR-5 24.3 µM | PC-3 25.9 µM | SF-295 26.5 µM | SF-539 24.5 µM | SK-MEL-28 17.7 µM | SW-620 30.1 µM | TK-10 23.8 µM
